Measurements taken from patent US9662362B2, “Composition and methods for clotting blood” (BYZMED LLC, priority 2009, dated 2017).

System: nose bleeding
Assay: Nose bleeding after abrasion of the nasal passage, checked by blowing nose and dabbing with tissue
Format: in vivo
Details: visual check
Text: Nose bleeding was caused by creating an abrasion to the nasal passage of a subject by use of a cotton swab irritating the nasal passage. The subject then blew their nose vigorously. The first test was to create an abrasion and pinching the nostril with no application of any product. Bleeding was checked at multiple time points, including the after 30 seconds, 60 seconds and 90 seconds by blowing ones nose 3 times and dabbing the area with a tissue to see if there was continued perfuse bleeding. […] After 90 seconds, the first test was then concluded. Next, the effect of glycerin on nose bleeding was determined. Glycerin was applied to the nasal passage after bleeding had started. Bleeding was checked at multiple time points, including the after 30 seconds, 60 seconds and 90 seconds by blowing ones nose 3 times and dabbing the area with a tissue to see if there was continued perfuse bleeding. […] After 90 seconds, the second test was then concluded. The effect of the disclosed clotting agent that included the active ingredients of […] betonica, achillea millefolium, marrubium vulgare, and urtica dioica application on nose bleeding was then determined. Bleeding was checked at multiple time points, including after 30 seconds, 60 seconds and 90 seconds by the subject blowing their nose 3 times and dabbing the area with a tissue to see if there was continued perfuse bleeding. […] After 90 seconds, there was no bleeding in the nasal passage. This part of the test was then concluded.

Measured: bleeding in the nasal passage

OCC(O)CO [Glycerin]
bleeding continued: after 30 seconds, applied to nasal passage after bleeding had started | after 60 seconds (1 minute) | after 90 seconds
